Here are results for 13 compounds from ChEMBL document CHEMBL5518181, “Studies of antibacterial activity (in vitro and in vivo) and mode of action for des-acyl tridecaptins (DATs)” (Eur J Med Chem, 2024).

In data set [1] the test system is Escherichia coli. Description: Antibacterial activity against wild-type Escherichia coli ATCC 25922 assessed as inhibition of bacterial growth incubated for 18 hrs. It is filed as functional. Conditions: read-out: MIC100.
In data set [2] the test system is Klebsiella pneumoniae. Description: Antibacterial activity against wild-type Klebsiella pneumoniae ATCC 13883 assessed as inhibition of bacterial growth incubated for 18 hrs. Format: functional. Conditions: read-out: MIC100.
A short description of data set [3]: Hemolytic activity in human red blood cells at 400 ug/ml incubated for 45 mins by spectrophotometric analysis relative to control. It is filed as toxicity, cell-based, Erythrocyte. Conditions: red blood cells (erythrocytes), at 400 µg/mL, read-out: Activity.
Data set [4] can be described thus: Cytotoxicity against human HepG2 cells incubated for 40 hrs by celltiter-glo luminescent cell viability assay. Format: toxicity, cell-based. Background: In ATP-based viability assays light output follows the ATP content of the culture.

In brackets after ≈: the same amount, converted by molar mass.

Regarding `CC[C@H](C)[C@@H](NC(=O)[C@@H](NC(=O)[C@H](CCC(=O)O)NC(=O)[C@H](Cc1c[nH]c2ccccc12)NC(=O)[C@@H](CCN)NC(=O)[C@H](CCN)NC(=O)[C@H](CO)NC(=O)[C@@H](Cc1c[nH]c2ccccc12)NC(=O)[C@@H](CO)NC(=O)CNC(=O)[C@@H](CCN)NC(=O)[C@H](N)C(C)C)C(C)C)C(=O)N[C@@H](C)C(=O)O`, the MIC was determined as 16 µg/mL (≈ 11.2 µM) in data set [1] and 8 µg/mL (≈ 5.58 µM) in data set [2]. Moreover, the hemolysis at 0.75 h, 400 ug/ml in data set [3] stood at 43.7%. In addition, the IC50 at 40 h in data set [4] was more than 170 µg/mL.

Regarding `CC[C@H](C)[C@@H](NC(=O)[C@@H](NC(=O)[C@H](CCC(=O)O)NC(=O)[C@H](Cc1ccccc1)NC(=O)[C@@H](CCN)NC(=O)[C@H](CCN)NC(=O)[C@H](CO)NC(=O)[C@@H](Cc1c[nH]c2ccccc12)NC(=O)[C@@H](CO)NC(=O)CNC(=O)[C@@H](CN)NC(=O)[C@H](N)C(C)C)C(C)C)C(=O)N[C@@H](C)C(=O)O`, the MIC in data set [1] and in data set [2] was 32 µg/mL (≈ 23.2 µM) throughout. For the same compound, in data set [3], the hemolysis at 0.75 h, 400 ug/ml was 6.3%. In data set [4], this compound showed an IC50 at 40 h of 125 µg/mL (≈ 90.5 µM).

For `CC[C@H](C)[C@@H](NC(=O)[C@@H](NC(=O)[C@H](CCC(=O)O)NC(=O)[C@H](Cc1ccccc1)NC(=O)[C@@H](CCN)NC(=O)[C@H](C)NC(=O)[C@H](CO)NC(=O)[C@@H](Cc1c[nH]c2ccccc12)NC(=O)[C@@H](CO)NC(=O)CNC(=O)[C@@H](CCN)NC(=O)[C@H](N)C(C)C)C(C)C)C(=O)N[C@@H](C)C(=O)O`, the MIC in data set [1] was more than 64 µg/mL; in data set [2] it was 64 µg/mL (≈ 46.9 µM). Moreover, the hemolysis at 0.75 h, 400 ug/ml in data set [3] amounted to 5.9%. In data set [4], this compound displayed an IC50 at 40 h of 126 µg/mL (≈ 92.3 µM).

Consider `CC[C@H](C)[C@@H](NC(=O)[C@@H](NC(=O)[C@H](CCC(=O)O)NC(=O)[C@H](Cc1ccccc1)NC(=O)[C@@H](CCN)NC(=O)[C@H](CCN)NC(=O)[C@H](CO)NC(=O)[C@@H](Cc1c[nH]c2ccccc12)NC(=O)[C@@H](CO)NC(=O)CNC(=O)[C@@H](CN)NC(=O)[C@H](NC(=O)[C@H](C)N)C(C)C)C(C)C)C(=O)N[C@@H](C)C(=O)O`, for which the MIC in data set [1] and in data set [2] was more than 64 µg/mL throughout. Further, in data set [3], the hemolysis at 0.75 h, 400 ug/ml was 0%. The compound also displayed an IC50 at 40 h in data set [4] of more than 170 µg/mL.

Consider `CC[C@H](C)[C@@H](NC(=O)[C@@H](NC(=O)[C@H](CCC(=O)O)NC(=O)[C@H](Cc1ccccc1)NC(=O)[C@@H](CCN)NC(=O)[C@H](CCN)NC(=O)[C@H](CO)NC(=O)[C@@H](Cc1c[nH]c2ccccc12)NC(=O)[C@@H](CO)NC(=O)CNC(=O)[C@@H](CCN)NC(=O)[C@H](NC(=O)[C@H](C)NC)C(C)C)C(C)C)C(=O)N[C@@H](C)C(=O)O`, for which the MIC in data set [1] and in data set [2] was 8 µg/mL (≈ 5.41 µM) throughout. Moreover, the hemolysis at 0.75 h, 400 ug/ml in data set [3] worked out at 5.3%. The compound further displayed an IC50 at 40 h in data set [4] of more than 70 µg/mL.

As for `CC[C@H](C)[C@@H](NC(=O)[C@@H](NC(=O)[C@H](CCC(=O)O)NC(=O)[C@H](Cc1ccccc1)NC(=O)[C@@H](CCN)NC(=O)[C@H](CCN)NC(=O)[C@H](CO)NC(=O)[C@@H](Cc1c[nH]c2ccccc12)NC(=O)[C@@H](C)NC(=O)CNC(=O)[C@@H](CCN)NC(=O)[C@H](NC(=O)[C@H](C)N)C(C)C)C(C)C)C(=O)N[C@@H](C)C(=O)O`, the MIC in data set [1] stood at 16 µg/mL (≈ 11 µM); in data set [2], 32 µg/mL (≈ 22.1 µM). For the same compound, the hemolysis at 0.75 h, 400 ug/ml in data set [3] is 0%. The IC50 at 40 h in data set [4] worked out at 139 µg/mL (≈ 95.9 µM).

Turning to `CC[C@H](C)[C@@H](NC(=O)[C@@H](NC(=O)[C@H](CCC(=O)O)NC(=O)[C@H](Cc1ccccc1)NC(=O)[C@@H](CCN)NC(=O)[C@H](CCN)NC(=O)[C@H](CO)NC(=O)[C@@H](Cc1c[nH]c2ccccc12)NC(=O)[C@@H](CCN)NC(=O)CNC(=O)[C@@H](CCN)NC(=O)[C@H](N)C(C)C)C(C)C)C(=O)N[C@@H](C)C(=O)O`, the MIC in data set [1] and in data set [2] was more than 64 µg/mL in each case. In data set [3], the hemolysis at 0.75 h, 400 ug/ml came out at 0%. The compound also had an IC50 at 40 h in data set [4] of more than 170 µg/mL.

In the case of `CC[C@H](C)[C@@H](NC(=O)[C@@H](NC(=O)[C@H](CCC(=O)O)NC(=O)[C@H](Cc1ccccc1)NC(=O)[C@@H](CCN)NC(=O)[C@H](CCN)NC(=O)[C@H](CO)NC(=O)[C@@H](Cc1c[nH]c2ccccc12)NC(=O)[C@@H](CO)NC(=O)CNC(=O)[C@@H](CCN)NC(=O)[C@H](N)C(C)(C)C)C(C)C)C(=O)N[C@@H](C)C(=O)O`, the MIC was found to be 32 µg/mL (≈ 22.7 µM) in data set [1] and 16 µg/mL (≈ 11.4 µM) in data set [2]. Besides, in data set [3], the hemolysis at 0.75 h, 400 ug/ml came to 13%. The same compound gave an IC50 at 40 h in data set [4] of 33 µg/mL (≈ 23.4 µM).

Regarding `CC[C@H](C)[C@@H](NC(=O)[C@@H](NC(=O)[C@H](CCC(=O)O)NC(=O)[C@H](Cc1ccccc1)NC(=O)[C@@H](CCN)NC(=O)[C@H](CCN)NC(=O)[C@H](CC(=O)O)NC(=O)[C@@H](Cc1c[nH]c2ccccc12)NC(=O)[C@@H](CO)NC(=O)CNC(=O)[C@@H](CCN)NC(=O)[C@H](N)C(C)C)C(C)C)C(=O)N[C@@H](C)C(=O)O`, the MIC in data set [1] and in data set [2] was more than 64 µg/mL each time. In addition, the hemolysis at 0.75 h, 400 ug/ml in data set [3] is 0%. The same compound displayed an IC50 at 40 h in data set [4] of more than 170 µg/mL.

In the case of `CC[C@H](C)[C@@H](NC(=O)[C@@H](NC(=O)[C@H](CCC(=O)O)NC(=O)[C@H](Cc1ccccc1)NC(=O)[C@@H](CCN)NC(=O)[C@H](CCN)NC(=O)[C@H](CO)NC(=O)[C@@H](Cc1c[nH]c2ccccc12)NC(=O)[C@@H](CO)NC(=O)CNC(=O)[C@@H](CCN)NC(=O)[C@H](NC(=O)C(C)(C)N)C(C)C)C(C)C)C(=O)N[C@@H](C)C(=O)O`, the MIC in data set [1] and in data set [2] was 8 µg/mL (≈ 5.41 µM) in each case. Moreover, the hemolysis at 0.75 h, 400 ug/ml in data set [3] turned out to be 8.5%. The compound further returned an IC50 at 40 h in data set [4] of 83 µg/mL (≈ 56.1 µM).

Turning to `CC[C@H](C)[C@@H](NC(=O)[C@@H](NC(=O)[C@H](CCC(=O)O)NC(=O)[C@H](Cc1ccccc1)NC(=O)[C@@H](CCN)NC(=O)[C@H](CCN)NC(=O)[C@H](CO)NC(=O)[C@@H](Cc1c[nH]c2ccccc12)NC(=O)[C@@H](CO)NC(=O)CNC(=O)[C@@H](CCN)NC(=O)[C@H](NC(=O)C(F)(F)CN)C(C)C)C(C)C)C(=O)N[C@@H](C)C(=O)O`, the MIC in data set [1] and in data set [2] was more than 64 µg/mL throughout. Besides, in data set [3], the hemolysis at 0.75 h, 400 ug/ml was 0%. The IC50 at 40 h in data set [4] was more than 170 µg/mL.

`CC[C@H](C)[C@@H](NC(=O)[C@@H](NC(=O)[C@H](CCC(=O)O)NC(=O)[C@H](Cc1ccccc1)NC(=O)[C@@H](CCN)NC(=O)[C@H](CCN)NC(=O)[C@H](CO)NC(=O)[C@@H](Cc1c[nH]c2ccccc12)NC(=O)[C@@H](CO)NC(=O)CNC(=O)[C@@H](CCN)NC(=O)[C@H](NC(=O)[C@@H](N)CCN)C(C)C)C(C)C)C(=O)N[C@@H](C)C(=O)O`: the MIC in data set [1] and in data set [2] was 64 µg/mL (≈ 42.8 µM) each time. Moreover, the hemolysis at 0.75 h, 400 ug/ml in data set [3] amounted to 10%. In addition, in data set [4], the concentration for half-maximal inhibition (IC50) at 40 h was more than 70 µg/mL.

As for `CC[C@H](C)[C@@H](NC(=O)[C@@H](NC(=O)[C@H](CCC(=O)O)NC(=O)[C@H](Cc1ccccc1)NC(=O)[C@@H](CCN)NC(=O)[C@H](CCN)NC(=O)[C@H](CO)NC(=O)[C@@H](Cc1c[nH]c2ccccc12)NC(=O)[C@@H](CO)NC(=O)CNC(=O)[C@@H](CCN)NC(=O)[C@H](N)CC(=O)O)C(C)C)C(=O)N[C@@H](C)C(=O)O`, the MIC in data set [1] and in data set [2] was more than 64 µg/mL in each case. Further, the hemolysis at 0.75 h, 400 ug/ml in data set [3] amounted to 0%. The compound further showed an IC50 at 40 h in data set [4] of more than 170 µg/mL.

What is called IC50 is the concentration that inhibits the measured activity by half.
